According to ChEMBL document CHEMBL1201862, “PubChem BioAssay data set” (2004):
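Values below derive from 48-hour exposures of cells grown in 96-well plates, with endpoints linearly interpolated between the two concentrations bracketing the appropriate inhibition level. The concentration for 50% growth inhibition is given as GI50.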 The source made the active and inactive calls. Cut-off read from the data, not from the text of the source: active = GI50 up to about 1.1 µM and inactive = higher.

Experiments:
Test in all cases: DTP human tumour cell line panel, 48 h
SF-295 = test system: SF-295
Malme-3M = test system: Malme-3M
HL-60 = test system: HL-60
U-251 = test system: U-251
UACC-62 = test system: UACC-62
SF-539 = test system: SF-539
SNB-75 = test system: SNB-75
K562 = test system: K562
HT-29 = test system: HT-29
NCI-H460 = test system: NCI-H460
SNB-19 = test system: SNB-19
NCI-H23 = test system: NCI-H23
SF-268 = test system: SF-268
SN12C = test system: SN12C
UO-31 = test system: UO-31
SK-MEL-5 = test system: SK-MEL-5
ACHN = test system: ACHN

Row | Structure (SMILES) | GI50 (SF-295) | GI50 (Malme-3M) | GI50 (HL-60) | GI50 (U-251) | GI50 (UACC-62) | GI50 (SF-539) | GI50 (SNB-75) | GI50 (K562) | GI50 (HT-29) | GI50 (NCI-H460) | GI50 (SNB-19) | GI50 (NCI-H23) | GI50 (SF-268) | GI50 (SN12C) | GI50 (UO-31) | GI50 (SK-MEL-5) | GI50 (ACHN)
1 | Cc1c(Cl)cccc1NC(=O)c1cccc([N+](=O)[O-])c1O | 16.4 µM (inactive) | 6.25 µM (inactive) | 8.39 µM (inactive) | 9.44 µM (inactive) | 2.18 µM (inactive) | 15.7 µM (inactive) | 17.5 µM (inactive) | 17.3 µM (inactive) | 12.9 µM (inactive) | 8.81 µM (inactive) | 8.55 µM (inactive) | 6.87 µM (inactive) | 20.3 µM (inactive) | 14 µM (inactive) | 10.5 µM (inactive) | 3.26 µM (inactive) | 7.83 µM (inactive)
2 | N#CCc1ccc(/C(C#N)=C2/OC(=N)C(c3ccc(CC#N)cc3)C2=O)cc1 (configuration not stated) | > 100 µM (inactive) | > 100 µM (inactive) | > 100 µM (inactive) | – | > 100 µM (inactive) | > 100 µM (inactive) | > 100 µM (inactive) | > 100 µM (inactive) | > 100 µM (inactive) | > 100 µM (inactive) | > 100 µM (inactive) | > 100 µM (inactive) | > 100 µM (inactive) | > 100 µM (inactive) | > 100 µM (inactive) | > 100 µM (inactive) | > 100 µM (inactive)
3 | CCOC(=O)Nc1cc2nnc(-c3ccccc3)nc2c(N)n1 | 3.52 µM (inactive) | 4.8 µM (inactive) | 17.7 µM (inactive) | 30.5 µM (inactive) | 9.35 µM (inactive) | 18.4 µM (inactive) | 14.9 µM (inactive) | 5.14 µM (inactive) | 6.07 µM (inactive) | 3.28 µM (inactive) | 32.1 µM (inactive) | 14.1 µM (inactive) | 29.2 µM (inactive) | 35.2 µM (inactive) | 27.9 µM (inactive) | 2.23 µM (inactive) | 5.7 µM (inactive)
4 | CC(=O)Nc1ccc(-c2nnc(SCC(=O)Nc3ccccc3Cl)o2)cc1 | > 100 µM (inactive) | > 100 µM (inactive) | > 100 µM (inactive) | > 100 µM (inactive) | – | > 100 µM (inactive) | > 100 µM (inactive) | > 100 µM (inactive) | 80.4 µM (inactive) | > 100 µM (inactive) | > 100 µM (inactive) | > 100 µM (inactive) | > 100 µM (inactive) | > 100 µM (inactive) | > 100 µM (inactive) | > 100 µM (inactive) | > 100 µM (inactive)
5 | CCP(C)(C)=O | > 100 µM (inactive) | > 100 µM (inactive) | – | > 100 µM (inactive) | > 100 µM (inactive) | > 100 µM (inactive) | > 100 µM (inactive) | > 100 µM (inactive) | > 100 µM (inactive) | > 100 µM (inactive) | > 100 µM (inactive) | > 100 µM (inactive) | > 100 µM (inactive) | > 100 µM (inactive) | > 10 µM (inactive) | > 100 µM (inactive) | > 100 µM (inactive)
6 | COc1cc(OC)cc(-c2cc(O)c3cc4c(cc3n2)OCO4)c1 | 0.2 µM (active) | 0.426 µM (active) | 0.162 µM (active) | 0.221 µM (active) | 0.209 µM (active) | 0.173 µM (active) | 2.32 µM (inactive) | 0.15 µM (active) | 0.295 µM (active) | 0.26 µM (active) | 0.8 µM (active) | 0.351 µM (active) | 0.54 µM (active) | 0.367 µM (active) | 1.22 µM (inactive) | 0.163 µM (active) | 0.321 µM (active)
7 | CCCCCCCCCc1cc(=O)c2c(O)cccc2o1 | 46.3 µM (inactive) | 19.3 µM (inactive) | 25.2 µM (inactive) | 48.1 µM (inactive) | 58.2 µM (inactive) | > 100 µM (inactive) | > 10 µM (inactive) | 29.2 µM (inactive) | > 10 µM (inactive) | 56.2 µM (inactive) | 74.3 µM (inactive) | 65.5 µM (inactive) | 31.8 µM (inactive) | 87.3 µM (inactive) | 37.1 µM (inactive) | 21 µM (inactive) | 42.7 µM (inactive)
8 | CC(=O)Nc1ccc(Cl)c(Cl)c1 | > 100 µM (inactive) | > 100 µM (inactive) | > 10 µM (inactive) | > 100 µM (inactive) | > 100 µM (inactive) | > 100 µM (inactive) | > 100 µM (inactive) | > 100 µM (inactive) | > 100 µM (inactive) | > 100 µM (inactive) | > 100 µM (inactive) | > 100 µM (inactive) | > 100 µM (inactive) | > 100 µM (inactive) | > 100 µM (inactive) | – | > 100 µM (inactive)
